The target of assay [1] is T1, human PNMT (hPNMT) (Homo sapiens, UniProt P11086).
T1 sequence (P11086 1-282): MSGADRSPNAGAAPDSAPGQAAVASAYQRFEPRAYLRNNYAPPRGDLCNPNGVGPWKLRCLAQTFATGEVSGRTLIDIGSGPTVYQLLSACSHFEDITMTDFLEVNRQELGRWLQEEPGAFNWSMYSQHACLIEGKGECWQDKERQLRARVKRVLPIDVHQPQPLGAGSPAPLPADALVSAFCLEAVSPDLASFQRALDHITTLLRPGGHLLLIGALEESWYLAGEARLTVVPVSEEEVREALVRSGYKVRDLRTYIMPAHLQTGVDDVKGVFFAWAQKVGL
Description: Isothermal titration calorimetry of ligand binding to hPNMT. Particulars: for binding to free hPNMT: no AdoMet or AdoHcy present. On the technique in general: In ITC the heat of successive injections is recorded.

The target in assay [2] is T1, human PNMT (hPNMT). Particulars: pH 8.0, 30 °C; ref [30]; cited from earlier work.
In assay [3] the target is T1, human PNMT (hPNMT). Put plainly: pH dependence of hPNMT kinetic parameters and of Ki for SK&F 29661. The note with it: pH 6-10, 30 °C; fit to eq 6.
The target in assay [4] is T1, human PNMT (hPNMT). Description: hPNMT initial velocity studies. The class given is biochemical.
The target of assay [5] is T1, human PNMT (hPNMT). Put plainly: Determination of inhibition constants and inhibition patterns for hPNMT. The class given is biochemical. The note with it: pH 8.0, 30 °C; for Ki: read-out: Kis.
Where [6] appears, read: varied substrate AdoMet, fixed PEA 100 μM.
The mark [7] stands for this setting: varied substrate PEA, fixed AdoMet 5 μM.

Here are results for six compounds from paper PMC3853373 (Archives of biochemistry and biophysics, 2013).

Values joined by “and” are separate entries in the source; they are usually repeats but may differ in a detail not shown here. Equal entries are not always repeated. Where two headings read alike, the source gives them in different places.

As usually defined, the Kd is the free concentration of one partner at which half of the binding sites on the other are occupied at equilibrium, for simple one-to-one binding. Read a high Kd as a looser complex. Usually kcat stands for the maximal rate divided by the concentration of active sites. At human PNMT (hPNMT) [1], `NCC(O)c1ccccc1` (stereo not drawn) [PEA, phenylethanolamine] gave a Kd of 60 ± 2 µM. Further, the “binding to free hPNMT” value at human PNMT (hPNMT) [1] (ITC) is given as “did not bind”. Further, on human PNMT (hPNMT) [2], the catalytic constant (kcat) was 0.0473 ± 0.00167 s⁻¹ and the kcat/Ka result was “(2.8 ± 0.2) × 10^4 M^−1 min^−1”. Also, on human PNMT (hPNMT) [3], the “pKa2 from LogV/K pH profile” value is 8.66 and 8.66 ± 0.03; the “pKa3 from LogV/K pH profile” value was 9.26 and 9.26 ± 0.03.

The compound `NCC(O)c1ccc(O)cc1` (stereo not drawn) [Octopamine, octopamine] registered a Kia at human PNMT (hPNMT) [4] (dissociation constant from eq 1, phosphate buffer pH 8.0, 30 °C) of 2.1 ± 0.2 µM. The “Km lower than that of PEA” value at human PNMT (hPNMT) [4] (ratio of Km values against PEA) was found to be 20 fold. Besides, the Kd at human PNMT (hPNMT) [1] was determined as 3.3 ± 0.1 µM. In addition, the “binding to free hPNMT” value on human PNMT (hPNMT) [1] (ITC) is recorded as “did not bind”.

As to `NC[C@H](O)c1ccc(O)c(O)c1` [NE, norepinephrine], the affinity at human PNMT (hPNMT) [1], expressed as Kd, was 7.2 ± 0.2 µM. The “binding to free hPNMT” value on human PNMT (hPNMT) [1] (ITC) is reported as “did not bind”.

As to `Nc1ncnc2c1ncn2[C@@H]1O[C@H](CSCC[C@H](N)C(=O)O)[C@@H](O)[C@H]1O` [AdoHcy, S-adenosyl-L-homocysteine], at human PNMT (hPNMT) [5] (setting [6]), the Ki was 0.8 ± 0.04 µM. At human PNMT (hPNMT) [5] (setting [7]), the Ki was 2.5 ± 0.28 µM and the Kii was 1.0 ± 0.02 µM.

Consider `CNC[C@H](O)c1ccc(O)c(O)c1` [Epinephrine, epinephrine], for which the Kii on human PNMT (hPNMT) [5] (setting [6]) was 22 ± 0.8 µM; on human PNMT (hPNMT) [5] (setting [7]) it was 51 ± 1.0 µM. Further, the “preference for binding in presence of AdoHcy over AdoMet” value at human PNMT (hPNMT) [1] (ITC) amounted to 5 fold.

`C[S+](CC[C@H](N)C(=O)[O-])C[C@H]1O[C@@H](n2cnc3c(N)ncnc32)[C@H](O)[C@@H]1O` (stereo partly drawn) [AdoMet, S-adenosyl-L-methionine]: on human PNMT (hPNMT) [1], the Kd worked out at 4.6 ± 0.7 µM. On human PNMT (hPNMT) [3], the “pKa2 from LogV/K pH profile” value is recorded as 7.25 and the “pKa3 from LogV/K pH profile” value was found to be 9.15 ± 0.12.
